One assay has as its system MDH. In words: MDH activity reactivity assay (methanol SOUR), inhibitor trials. Format: cell-based, M. trichosporium OB3b. To be noted: for selective inhibition of MDH activity versus MMO: salts tested on MMO and MDH activity. How it is done:
The procedure for measuring methanol dehydrogenase (MDH) activity by measuring the specific oxygen uptake rate (SOUR) has been tested on M. trichosporium OB3b cultures grown both in batch and in the chemostat. M. trichosporium OB3b cells were harvested using centrifugation. The supernatant was poured off and the cells were re-suspended in fresh media lacking a carbon source. Phosphate buffer solution was added to a sample chamber in which dissolved oxygen (DO) was measure with a DO probe. When the DO of the solution stabilized, the re-suspended cells were added to the sample chamber to measure baseline oxygen uptake by the cells without a carbon food source present. Methanol was then added to test for MDH activity. The difference in the oxygen uptake rates illustrates the MDH activity of the culture.
(§1) Metabolic activity test methods have been developed to monitor specific activities in M. trichosporium OB3b cultures. A naphthalene oxidation assay was used to determine if sMMO is being expressed. An ethylene to ethylene oxide reaction assay and a methane oxidation assay was used to quantify MMO activity, and a methanol oxidation assay was used to estimate MDH activity. Concurrent batch metabolic tests can be conducted to investigate methanol inhibition of methane oxidation, cyclopropane to cyclopropanol conversion and concurrent/subsequent cyclopropanol inhibition of MDH activity, the effect of cyclopropanol inhibition on growth yield, and the effects of high oxygen concentration.
(§2) The effect of salts NaCl, NH4Cl and CaCl2 on MMO and MDH activity was evaluated using the reactivity assays described above.

For another assay, the target named is T1, sMMO (Methylosinus trichosporium, UniProt P27353).
T1 construct: endogenous in cells; host or cells: M. trichosporium OB3b whole cells, grown without copper (chemostat or batch)
T1 sequence (P27353 1-526): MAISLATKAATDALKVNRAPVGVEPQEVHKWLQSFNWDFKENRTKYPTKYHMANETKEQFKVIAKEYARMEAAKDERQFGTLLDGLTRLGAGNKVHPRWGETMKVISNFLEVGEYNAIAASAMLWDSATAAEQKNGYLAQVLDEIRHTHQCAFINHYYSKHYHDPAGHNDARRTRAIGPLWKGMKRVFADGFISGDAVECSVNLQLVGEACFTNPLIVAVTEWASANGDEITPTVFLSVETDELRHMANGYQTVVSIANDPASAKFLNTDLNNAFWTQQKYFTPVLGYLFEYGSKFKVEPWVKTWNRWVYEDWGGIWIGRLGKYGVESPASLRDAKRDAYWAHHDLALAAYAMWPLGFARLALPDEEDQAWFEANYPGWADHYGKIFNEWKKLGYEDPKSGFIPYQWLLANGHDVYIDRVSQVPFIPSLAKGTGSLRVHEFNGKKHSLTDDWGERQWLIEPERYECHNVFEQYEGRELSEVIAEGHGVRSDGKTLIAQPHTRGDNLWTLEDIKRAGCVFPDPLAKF
T1 sequence (P27354 1-394 partner): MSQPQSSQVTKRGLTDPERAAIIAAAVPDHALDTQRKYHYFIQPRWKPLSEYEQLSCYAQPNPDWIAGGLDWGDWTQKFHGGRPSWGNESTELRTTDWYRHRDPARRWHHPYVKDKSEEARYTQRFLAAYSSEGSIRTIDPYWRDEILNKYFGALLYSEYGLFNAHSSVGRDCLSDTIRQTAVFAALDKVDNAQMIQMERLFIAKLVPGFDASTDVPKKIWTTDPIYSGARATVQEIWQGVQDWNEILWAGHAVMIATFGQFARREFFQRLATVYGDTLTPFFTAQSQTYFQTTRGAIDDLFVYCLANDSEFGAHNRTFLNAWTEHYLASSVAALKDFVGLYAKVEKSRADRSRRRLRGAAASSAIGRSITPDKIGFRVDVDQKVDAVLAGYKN
T1 sequence (P27355 1-169 partner): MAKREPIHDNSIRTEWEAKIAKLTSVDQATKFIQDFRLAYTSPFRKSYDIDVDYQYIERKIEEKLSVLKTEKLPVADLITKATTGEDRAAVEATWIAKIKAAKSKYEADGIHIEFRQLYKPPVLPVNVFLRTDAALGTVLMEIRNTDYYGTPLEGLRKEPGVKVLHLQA
The assay is described as follows: sMMO activity reactivity assay, inhibitor trials. Format: cell-based, M. trichosporium OB3b. How it is done:
M. trichosporium OB3b cultures were grown under plus copper (pMMO expressed) or minus copper (sMMO expressed) conditions using chemostat or batch culture conditions. Aliquots of culture (˜100 ml) were harvested by centrifugation, and concentrated 50-fold in fresh media. Pelleting cells in this manner ensured that all residual methane was eliminated, increased ease of measuring protein, and made activity assays as brief as possible. Assays were performed in 30 ml crimp cap reaction vials with 4 ml of media (either +Cu or −Cu) with 10 mM sodium formate. To initiate assays, 100 µl of the 50× cell suspension was added to reaction vials with a plastic syringe. Short descriptions of activity assays follow.
Due to the relative insolubility of methane, large volumes should be added to reaction vials to achieve concentrations in the aqueous phase (Cw) above the concentration of methane where the velocity of methane consumption (V) is equal to 0.5Vmax for minus copper grown M. trichosporium OB3b cultures. These large methane additions make direct measurement of methane consumption in short-term assays unlikely, therefore the accumulation of ethylene oxide (ETO) upon the oxidation of ethylene (ETH) was used as a surrogate measurement. Reaction vials were prepared as described above and 5 ml of ETH added as an overpressure. The appearance of ETO was monitored by gas chromatography evaluation of Cw over the course of 30 minutes (FIG. 39A). Killed cells (boiled) served as a negative control. pMMO is a copper enzyme and can be inhibited by allylthiourea (ATU), while sMMO (an iron enzyme) is insensitive to inhibition by ATU. The ETH to ETO assay described above was repeated with 10 μM ATU to discriminate between sMMO and pMMO activity.
as §1, with “concentration. Once stable operation and baseline metabolic monitoring in the chemostat have been achieved, inhibitor can be added to evaluate chemostat operation under methanol-producing conditions.” for “concentration.”
MMO activity has been measured via both methane (CH4) consumption and ethylene oxide (ETO) production upon oxidation of the non-growth substrate ethylene (ETH, Table 4). While ETO production matches methane consumption for pMMO, ETH is not as good a substrate for sMMO as methane. Nevertheless, the ETO accumulation assay is quick (<30 min) and can be used to screen for activity before starting a larger experiment.
as §2

For `[Cl-].[Na+]` [NaCl], the “selective inhibition of MDH activity versus MMO” value (from here on “selective inhibition”) in the assay on MDH was “None of the salts were effective”.

As for `[Ca+2].[Cl-].[Cl-]` [CaCl2], the “Fraction of Activity Remaining, sMMO” value was 0.41 on sMMO (CaCl2 10 mmol), 0.29 at sMMO (CaCl2 20 mmol) and 0.20 on sMMO (CaCl2 40 mmol). In addition, the “Fraction of Activity Remaining, MDH” value came to 0.71 in the assay with MDH (CaCl2 10 mmol), 0.45 in the assay with MDH (CaCl2 40 mmol) and 0.35 in the assay with MDH (CaCl2 66 mmol). In addition, the “selective inhibition” value in the assay with MDH was “None of the salts were effective”.

Consider `Cl.N` [NH4Cl], for which, in the assay on MDH, the “selective inhibition” value was “None of the salts were effective”.

(Values after US20180258381A1, “BIO-LAMINA BIOREACTORS AND METHODS OF MAKING AND USING THE SAME” (Oregon State University, priority 2015, published 2018).)
